Measurements from patent publication US12421254B2, “KRAS modulators and uses thereof” (Quanta Therapeutics, Inc., priority 2023, dated 2025).

Tests used:
[1] = biological target: GST-tagged KRAS-G12D (2-169) (Homo sapiens, UniProt P01116, G12D); assay: Nucleotide exchange assay (NEA), SOS-mediated, HTRF, KRAS G12D; type: biochemical; details: Table 4; IC50 extracted at 30 min; 20 nM SOScat; read-out: NEA G12D IC50
In short: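 Compound preincubated 1 h at RT with 0.25 nM GST-KRAS-G12D (2-169) and anti-GST Tb donor, then 20 nM SOS1cat (564-1049) and 150 nM GTP-DY-647P1 added; pH 7.3 HEPES buffer with MgCl2 and DTT. HTRF monitored at RT; % inhibition versus DMSO and no-SOS blank, 4-parameter IC50 taken at 30 min.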

[2] = biological target: GST-tagged KRAS-G12V (2-169) (Homo sapiens, UniProt P01116, G12V); assay: Nucleotide exchange assay (NEA), SOS-mediated, HTRF, KRAS G12V; type: biochemical; details: Table 4; IC50 extracted at 90 min; 80 nM SOS
In short: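 GST-KRAS-G12V (2-169), 0.25 nM, pre-incubated 1 h at RT with compound, then SOS1cat (564-1049) 80 nM and GTP-DY-647P1 150 nM added in HEPES pH 7.3 buffer with MgCl2 and DTT. HTRF via anti-GST Tb cryptate read over 90 min; IC50 from 4-parameter fit at 90 min, blanked to no-SOS reactions.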

Chain of GST-tagged KRAS-G12D (2-169) (P01116 2-169 isoform P01116-2 G12D): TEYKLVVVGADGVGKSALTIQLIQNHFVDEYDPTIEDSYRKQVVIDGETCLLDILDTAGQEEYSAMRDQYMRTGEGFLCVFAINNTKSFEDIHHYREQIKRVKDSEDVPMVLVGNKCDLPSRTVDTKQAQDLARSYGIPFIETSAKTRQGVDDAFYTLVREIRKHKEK
Chain of GST-tagged KRAS-G12V (2-169) (P01116 2-169 isoform P01116-2 G12V): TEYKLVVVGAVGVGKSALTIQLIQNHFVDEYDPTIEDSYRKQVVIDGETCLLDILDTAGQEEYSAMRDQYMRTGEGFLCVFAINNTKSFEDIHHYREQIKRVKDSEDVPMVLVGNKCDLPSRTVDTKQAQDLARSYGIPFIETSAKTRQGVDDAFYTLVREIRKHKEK

SMILES	IC50 [1]	IC50 [2]
CN(c1nc(OC[C@@]23CCCN2C[C@H](F)C3)nc(N2CC3(CCc4sc(N)c(C#N)c43)C2)n1)C1CCOC1 (stereo partly drawn) [Compound 36, 2-amino-1′-[4-[[(2R,8S)-2-fluoro-1,2,3,5,6,7-hexahydropyrrolizin-8-yl]methoxy]-6-[methyl(tetrahydrofuran-3-yl)amino]-1,3,5-triazin-2-yl]spiro[5,6-dihydrocyclopenta[b]thiophene-4,3′-azetidine]-3-carbonitrile]	100 to 1000 nM	100 to 1000 nM
C[C@H](c1cccnc1N)N(C)c1nc(OCC2(N(C)C)CC2)nc(N2CC3(C2)SCc2sc(N)c(C#N)c23)n1 [Compound 181, 2-amino-1′-[4-[[(1R)-1-(2-amino-3-pyridyl)ethyl]-methyl-amino]-6-[[1-(dimethylamino)cyclopropyl]methoxy]-1,3,5-triazin-2-yl]spiro[6H-thieno[2,3-c]thiophene-4,3′-azetidine]-3-carbonitrile]	100 to 1000 nM	10 to 100 nM
N#Cc1c(N)sc2c1C1(CC2)CN(c2nc(OC[C@@]34CCCN3C[C@H](F)C4)nc(N(CCO)Cc3c(F)ccnc3N)n2)C1 [Compound 154, 2-amino-1′-[4-[(2-amino-4-fluoro-3-pyridyl)methyl-(2-hydroxyethyl)amino]-6-[[(2R,8S)-2-fluoro-1,2,3,5,6,7-hexahydropyrrolizin-8-yl]methoxy]-1,3,5-triazin-2-yl]spiro[5,6-dihydrocyclopenta[b]thiophene-4,3′-azetidine]-3-carbonitrile]	10 to 100 nM	< 10 nM
N#Cc1c(N)sc2c1C1(CC2)CN(c2nc(OC[C@@]34CCCN3C[C@H](F)C4)nc(O[C@@H]3COC[C@@H]3O)n2)C1 (racemic) [Compound 28, 2-amino-1′-[4-[[(2R,8S)-2-fluoro-1,2,3,5,6,7-hexahydropyrrolizin-8-yl]methoxy]-6-[rac-(3R,4S)-4-hydroxytetrahydrofuran-3-yl]oxy-1,3,5-triazin-2-yl]spiro[5,6-dihydrocyclopenta[b]thiophene-4,3′-azetidine]-3-carbonitrile]	1000 to 20000 nM	100 to 1000 nM
CC(c1ccnn1C)N(C)c1nc(OC[C@@]23CCCN2C[C@H](F)C3)nc(N2CC3(CCc4sc(N)c(C#N)c43)C2)n1 (stereo partly drawn) [Compound 125, 2-amino-1′-[4-[[(2R,8S)-2-fluoro-1,2,3,5,6,7-hexahydropyrrolizin-8-yl]methoxy]-6-[methyl-[i-(2-methylpyrazol-3-yl)ethyl]amino]-1,3,5-triazin-2-yl]spiro[5,6-dihydrocyclopenta[b]thiophene-4,3′-azetidine]-3-carbonitrile]	1000 to 20000 nM	10 to 100 nM
N#Cc1c(N)sc2c1C1(CN(c3nc(OC[C@@]45CCCN4C[C@H](F)C5)nc(N4C5CSCC4C5)n3)C1)SC2 [Compound 269, 2-amino-1′-[4-[[(2R,8S)-2-fluoro-1,2,3,5,6,7-hexahydropyrrolizin-8-yl]methoxy]-6-(3-thia-6-azabicyclo[3.1.1]heptan-6-yl)-1,3,5-triazin-2-yl]spiro[6H-thieno[3,4-b]thiophene-4,3′-azetidine]-3-carbonitrile]	100 to 1000 nM	10 to 100 nM
C[C@@]1(O)CCCN(c2nc(OC[C@]34CCCN3[C@H](COc3cc(C(F)(F)F)ncn3)CC4)nc(N3CC4(C3)SCc3sc(N)c(C#N)c34)n2)C1 (racemic) [Compound 252, 2-amino-1′-[4-[(3R)-3-hydroxy-3-methyl-1-piperidyl]-6-[[(3SR,8RS)-3-[[6-(trifluoromethyl)pyrimidin-4-yl]oxymethyl]-1,2,3,5,6,7-hexahydropyrrolizin-8-yl]methoxy]-1,3,5-triazin-2-yl]spiro[6H-thieno[3,4-b]thiophene-4,3′-azetidine]-3-carbonitrile]	< 10 nM	< 10 nM
N#Cc1c(N)sc2c1C1(CN(c3nc(OC[C@@]45CCCN4C[C@H](F)C5)nc(N(CC(N)=O)C4(C#N)CC4)n3)C1)SC2 [Compound 266, 2-[[4-(2-amino-3-cyano-spiro[6H-thieno[3,4-b]thiophene-4,3′-azetidine]-1′-yl)-6-[[(2R,8S)-2-fluoro-1,2,3,5,6,7-hexahydropyrrolizin-8-yl]methoxy]-1,3,5-triazin-2-yl]-(1-cyanocyclopropyl)amino]acetamide]	< 10 nM	< 10 nM
CC(c1cccnc1N)N(CCO)c1nc(OC[C@@]23CCCN2C[C@H](F)C3)nc(N2CC3(CCc4sc(N)c(C#N)c43)C2)n1 (stereo partly drawn) [Compound 110, 2-amino-1′-[4-[1-(2-amino-3-pyridyl)ethyl-(2-hydroxyethyl)amino]-6-[[(2R,8S)-2-fluoro-1,2,3,5,6,7-hexahydropyrrolizin-8-yl]methoxy]-1,3,5-triazin-2-yl]spiro[5,6-dihydrocyclopenta[b]thiophene-4,3′-azetidine]-3-carbonitrile]	< 10 nM	< 10 nM
N#Cc1c(N)sc2c1C1(CN(c3nc(OC[C@@]45CCCN4C[C@H](F)C5)nc(N4[C@@H]5CC[C@H]4C[C@H](O)C5)n3)C1)SC2 [Compound 275, 2-amino-1′-[4-[[(2R,8S)-2-fluoro-1,2,3,5,6,7-hexahydropyrrolizin-8-yl]methoxy]-6-[(1S,5R)-3-hydroxy-8-azabicyclo[3.2.1]octan-8-yl]-1,3,5-triazin-2-yl]spiro[6H-thieno[3,4-b]thiophene-4,3′-azetidine]-3-carbonitrile]	100 to 1000 nM	100 to 1000 nM
C[C@H](c1cccnc1N)N(C)c1nc(OC[C@@]23CCCN2C[C@H](F)C3)nc(N2CCC3(CCc4sc(N)c(C#N)c43)C2)n1 (stereo partly drawn) [Compound 195, 2-amino-1′-[4-[methyl-[(1R)-1-(2-amino-3-pyridyl)ethyl]amino]-6-[[(2R,8S)-2-fluoro-1,2,3,5,6,7-hexahydropyrrolizin-8-yl]methoxy]-1,3,5-triazin-2-yl]spiro[5,6-dihydrocyclopenta[b]thiophene-4,3′-pyrrolidine]-3-carbonitrile]	10 to 100 nM	< 10 nM
C[C@@]1(O)CCCN(c2nc(OCC3(CN4CCOCC4)CC3)nc(N3CCC4(CCCc5sc(N)c(C#N)c54)C3)n2)C1 (stereo partly drawn) [Compound 64, 2-amino-1′-[4-[(3R)-3-hydroxy-3-methyl-1-piperidyl]-6-[[1-(morpholinomethyl)cyclopropyl]methoxy]-1,3,5-triazin-2-yl]spiro[6,7-dihydro-5H-benzothiophene-4,3′-pyrrolidine]-3-carbonitrile]	1000 to 20000 nM	1000 to 20000 nM
CC(c1c[nH]nc1Cl)N(C)c1nc(OC[C@@]23CCCN2C[C@H](F)C3)nc(N2CC3(CCc4sc(N)c(C#N)c43)C2)n1 (stereo partly drawn) [Compound 140, 2-amino-1′-[4-[1-(3-chloro-1H-pyrazol-4-yl)ethyl-methyl-amino]-6-[[(2R,8S)-2-fluoro-1,2,3,5,6,7-hexahydropyrrolizin-8-yl]methoxy]-1,3,5-triazin-2-yl]spiro[5,6-dihydrocyclopenta[b]thiophene-4,3′-azetidine]-3-carbonitrile]	1000 to 20000 nM	100 to 1000 nM
CN(c1nc(OC[C@@]23CCCN2C[C@H](F)C3)nc(N2CC3(CCc4sc(N)c(C#N)c43)C2)n1)[C@H]1COC[C@H]1O (racemic) [Compound 53, 2-amino-1′-[4-[[(2R,8S)-2-fluoro-1,2,3,5,6,7-hexahydropyrrolizin-8-yl]methoxy]-6-[[rac-(3S,4S)-4-hydroxytetrahydrofuran-3-yl]-methyl-amino]-1,3,5-triazin-2-yl]spiro[5,6-dihydrocyclopenta[b]thiophene-4,3′-azetidine]-3-carbonitrile]	1000 to 20000 nM	100 to 1000 nM
CO/N=C(\C(C)=O)C(=O)N1[C@@H]2CC[C@H]1CN(c1nc(OC[C@@]34CCCN3C[C@H](F)C4)nc(N3CC4(C3)SCc3sc(N)c(C#N)c34)n1)C2 [Compound 161, 2-amino-1′-[4-[[(2R,8S)-2-fluoro-1,2,3,5,6,7-hexahydropyrrolizin-8-yl]methoxy]-6-[(1R,5S)-8-[(2Z)-2-methoxyimino-3-oxo-butanoyl]-3,8-diazabicyclo[3.2.1]octan-3-yl]-1,3,5-triazin-2-yl]spiro[6H-thieno[3,4-b]thiophene-4,3′-azetidine]-3-carbonitrile]	1000 to 20000 nM	100 to 1000 nM
N#Cc1c(N)sc2c1C1(CC2)CN(c2nc(OC[C@@]34CCCN3C[C@H](F)C4)nc(N3CCC4CC4(CO)C3)n2)C1 (stereo partly drawn) [Compound 41, 2-amino-1′-[4-[[(2R,8S)-2-fluoro-1,2,3,5,6,7-hexahydropyrrolizin-8-yl]methoxy]-6-[1-(hydroxymethyl)-3-azabicyclo[4.1.0]heptan-3-yl]-1,3,5-triazin-2-yl]spiro[5,6-dihydrocyclopenta[b]thiophene-4,3′-azetidine]-3-carbonitrile]	1000 to 20000 nM	100 to 1000 nM
CC(c1nccnc1N)N(C)c1nc(OC[C@@]23CCCN2C[C@H](F)C3)nc(N2CC3(CCc4sc(N)c(C#N)c43)C2)n1 (stereo partly drawn) [Compound 102, 2-amino-1′-[4-[1-(3-aminopyrazin-2-yl)ethyl-methyl-amino]-6-[[(2R,8S)-2-fluoro-1,2,3,5,6,7-hexahydropyrrolizin-8-yl]methoxy]-1,3,5-triazin-2-yl]spiro[5,6-dihydrocyclopenta[b]thiophene-4,3′-azetidine]-3-carbonitrile]	10 to 100 nM	< 10 nM
